Measurements: ChEMBL document CHEMBL4602617, “Discovery and optimization of heteroaryl piperazines as potent and selective PI3Kδ inhibitors” (Bioorg Med Chem Lett, 2020)

Tests used:
[1] = target: Phosphorylase b kinase gamma catalytic chain, liver/testis isoform (Homo sapiens, UniProt P15735); test: Inhibition of recombinant full length human N-terminal GST-tagged PHKG2 expressed in baculovirus expression system using serine/threonine-7 peptide as substrate incubated for 60 mins in presence of ATP by Z'-LYTE assay
[2] = target: Cyclin-dependent kinase 5/CDK5 activator 1 (Homo sapiens, UniProt Q00535); test: Inhibition of recombinant full length human His-tagged CDK5/p35 expressed in baculovirus expression system using serine/threonine-12 peptide as substrate incubated for 60 mins in presence of ATP by Z'-LYTE assay
[3] = target: Platelet-derived growth factor receptor alpha (Homo sapiens, UniProt P16234); test: Inhibition of recombinant human GST-tagged PDGFRalpha cytoplasmic domain (550 to 1089 residues) expressed in baculovirus expression system using tyrosine-4 peptide as substrate incubated for 60 mins in presence of ATP by Z'-LYTE assay
[4] = Half life in rat at 0.5 mg/kg, iv 1 mg/kg, po; format: ADME, organism-based; settings: in vivo
Homo sapiens [5] = species: Homo sapiens; test: Selectivity index, ratio IC50 for inhibition of recombinant human N-terminal His6-tagged full-length p120gamma expressed in Sf21 insect cells to ratio IC50 for inhibition of recombinant human full-length N-terminal GST-tagged p110delta/untagged full-length p85alpha expressed in baculovirus infected Sf21 cells
[6] = target: Ribosomal protein S6 kinase beta-1 (Homo sapiens, UniProt P23443); test: Inhibition of recombinant human GST-tagged p70S6K catalytic domain expressed in baculovirus expression system using serine/threonine-7 peptide as substrate incubated for 60 mins in presence of ATP by Z'-LYTE assay
[7] = target: cGMP-dependent protein kinase 1 (Homo sapiens, UniProt Q13976); test: Inhibition of recombinant full length human GST-tagged PRKG1 expressed in baculovirus expression system using serine/threonine-01 peptide as substrate incubated for 60 mins in presence of ATP by Z'-LYTE assay
[8] = target: MAP/microtubule affinity-regulating kinase 3 (Homo sapiens, UniProt P27448); test: Inhibition of recombinant full length human GST-tagged MARK3 expressed in baculovirus expression system using serine/threonine-25 peptide as substrate incubated for 60 mins in presence of ATP by Z'-LYTE assay
[9] = target: Myosin light chain kinase 2, skeletal/cardiac muscle (Homo sapiens, UniProt Q9H1R3); test: Inhibition of recombinant full length human GST-tagged MYLK2 expressed in baculovirus expression system using […] peptide as substrate incubated for 60 mins in presence of ATP by Z'-LYTE assay
[10] = target: Melanocortin receptor 3 (Homo sapiens) (UniProt P41968); test: Displacement of [125I]NDP-alpha-MSH from full length human recombinant MC3 receptor expressed in HEK293 cells at 10 uM measured after 60 mins by radiometric scintillation analysis relative to control; format: cell-based
[11] = target: PAS domain-containing serine/threonine-protein kinase (Homo sapiens, UniProt Q96RG2); test: Inhibition of recombinant human GST-tagged PASK catalytic domain expressed in baculovirus expression system using serine/threonine-7 peptide as substrate incubated for 60 mins in presence of ATP by Z'-LYTE assay
[12] = target: MAP kinase-activated protein kinase 3 (Homo sapiens, UniProt Q16644); test: Inhibition of recombinant His-tagged human full length MAPKAPK3 expressed in baculovirus expression system using Ser/Thr-04 peptide as substrate after 1 hr in presence of ATP by Z'LYTE assay
[13] = target: Serine/threonine-protein kinase PAK 5 (Homo sapiens, UniProt Q9P286); test: Inhibition of recombinant human His-tagged PAK7 catalytic domain (425 to 719 residues) expressed in baculovirus expression system using serine/threonine-20 peptide as substrate incubated for 60 mins in presence of ATP by Z'-LYTE assay
[14] = target: Mitogen-activated protein kinase 10 (Homo sapiens, UniProt P53779); test: Inhibition of recombinant full length human GST-tagged JNK3 expressed in baculovirus expression system using serine/threonine-4 peptide as substrate incubated for 60 mins in presence of ATP by Z'-LYTE assay
[15] = target: Glutamate NMDA receptor (Rattus norvegicus) (UniProt P35439+Q00959+Q00960+Q00961+Q62645+Q8VHN2+Q9R1M7); test: Displacement of [3H]CGP-39653 from glutamate NMDA receptor in Wistar rat cerebral cortical membranes at 10 uM incubated for 20 mins by radiometric scintillation analysis relative to control
[16] = target: Androgen receptor (Homo sapiens) (UniProt P10275); test: Displacement of [3H]methyltrienolone from human LNCAP cells derived androgen receptor at 10 uM measured after 20 hrs by scintillation counting method relative to control; format: cell-based
[17] = target: Epidermal growth factor receptor (Homo sapiens, UniProt P00533, L861Q); test: Inhibition of human recombinant GST-tagged EGFR L861Q mutant cytoplasmic domain expressed in baculovirus expression system using tyrosine 4 peptide as substrate after 60 mins in presence of ATP FRET based Z'-LYTE assay
[18] = target: Casein kinase I isoform delta (Homo sapiens, UniProt P48730); test: Inhibition of recombinant human full-length GST-tagged CSNK1D expressed in baculovirus expression system using FRET-labeled Ser/Thr 11 peptide as substrate measured after 1 hr in presence of ATP by Z'-lyte assay
Homo sapiens [19] = species: Homo sapiens; test: Selectivity index, ratio IC50 for inhibition of recombinant human full-length N-terminal His6-tagged p110alpha/untagged full-length p85alpha expressed in baculovirus infected Sf21 cells to ratio IC50 for inhibition of recombinant human full-length N-terminal GST-tagged p110delta/untagged full-length p85alpha expressed in baculovirus infected Sf21 cells
[20] = target: Mast/stem cell growth factor receptor Kit (Homo sapiens, UniProt P10721); test: Inhibition of human recombinant His-tagged KIT cytoplasmic domain expressed in baculovirus expression system using Tyr6 peptide as measured after 1 hr in presence of ATP by Z'-LYTE assay
[21] = target: Substance-P receptor (Homo sapiens) (UniProt P25103); test: Displacement of [3H]substance P from recombinant full length human NK1R expressed in CHO cells at 10 uM after 90 mins by radiometric scintillation analysis relative to control; format: cell-based
[22] = target: Muscle, skeletal receptor tyrosine-protein kinase (Homo sapiens, UniProt O15146); test: Inhibition of recombinant human GST-tagged MUSK cytoplasmic domain (519 to 869 residues) expressed in baculovirus expression system using tyrosine-4 peptide as substrate incubated for 60 mins in presence of ATP by Z'-LYTE assay
[23] = target: Tyrosine-protein kinase Lck (Homo sapiens, UniProt P06239); test: Inhibition of recombinant full length human His-tagged LCK expressed in baculovirus expression system using tyrosine-2 peptide as substrate incubated for 60 mins in presence of ATP by Z'-LYTE assay
[24] = target: Serine/threonine-protein kinase 3 (Homo sapiens, UniProt Q13188); test: Inhibition of recombinant full length human GST-tagged MST2 expressed in baculovirus expression system using serine/threonine-7 peptide as substrate incubated for 60 mins in presence of ATP by Z'-LYTE assay
Rattus norvegicus = species: Rattus norvegicus; test: Displacement of [3H]TBOB from GABAA chloride channel receptor in Wistar rat whole brain membranes at 10 uM measured after 120 mins by radiometric scintillation analysis relative to control; format: cell membranes; settings: Membrane

Sequence of Myosin light chain kinase 2, skeletal/cardiac muscle (Q9H1R3 whole entry): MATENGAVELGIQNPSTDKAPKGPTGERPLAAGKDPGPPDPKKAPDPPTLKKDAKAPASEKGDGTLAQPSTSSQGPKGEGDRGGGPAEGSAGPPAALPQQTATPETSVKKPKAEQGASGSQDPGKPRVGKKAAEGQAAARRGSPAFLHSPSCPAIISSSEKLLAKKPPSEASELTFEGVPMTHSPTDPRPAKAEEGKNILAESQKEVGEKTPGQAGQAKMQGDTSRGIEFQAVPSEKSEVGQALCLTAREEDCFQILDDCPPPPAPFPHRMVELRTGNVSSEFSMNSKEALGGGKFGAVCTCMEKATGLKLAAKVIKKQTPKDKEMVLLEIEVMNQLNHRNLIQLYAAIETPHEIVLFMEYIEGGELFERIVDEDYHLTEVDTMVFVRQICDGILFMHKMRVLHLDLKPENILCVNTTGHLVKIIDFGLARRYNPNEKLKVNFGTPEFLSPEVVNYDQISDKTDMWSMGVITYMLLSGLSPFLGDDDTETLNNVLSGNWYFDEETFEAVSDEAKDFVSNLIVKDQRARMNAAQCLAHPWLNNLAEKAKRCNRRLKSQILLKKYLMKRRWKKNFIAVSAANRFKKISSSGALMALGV
Sequence of cGMP-dependent protein kinase 1 (Q13976 whole entry): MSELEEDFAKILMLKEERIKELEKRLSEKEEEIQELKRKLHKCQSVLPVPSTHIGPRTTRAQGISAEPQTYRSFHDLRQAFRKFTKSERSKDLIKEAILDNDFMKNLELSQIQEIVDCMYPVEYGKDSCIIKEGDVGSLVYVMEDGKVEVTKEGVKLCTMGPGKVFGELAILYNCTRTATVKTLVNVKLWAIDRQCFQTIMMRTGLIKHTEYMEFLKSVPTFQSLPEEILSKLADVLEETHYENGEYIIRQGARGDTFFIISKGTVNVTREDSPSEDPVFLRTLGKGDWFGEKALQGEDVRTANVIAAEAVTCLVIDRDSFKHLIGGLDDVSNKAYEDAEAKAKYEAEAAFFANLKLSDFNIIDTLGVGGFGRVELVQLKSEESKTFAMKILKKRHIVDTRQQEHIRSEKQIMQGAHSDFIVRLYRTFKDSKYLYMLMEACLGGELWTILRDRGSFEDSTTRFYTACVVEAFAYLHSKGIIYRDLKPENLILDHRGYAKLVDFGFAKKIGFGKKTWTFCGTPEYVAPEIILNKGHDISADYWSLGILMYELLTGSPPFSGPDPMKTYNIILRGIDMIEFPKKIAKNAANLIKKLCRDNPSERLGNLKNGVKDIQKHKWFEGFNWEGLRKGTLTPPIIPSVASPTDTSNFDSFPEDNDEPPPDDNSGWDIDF
Sequence of Androgen receptor (Homo sapiens) (P10275 whole entry, the tested form may be a part): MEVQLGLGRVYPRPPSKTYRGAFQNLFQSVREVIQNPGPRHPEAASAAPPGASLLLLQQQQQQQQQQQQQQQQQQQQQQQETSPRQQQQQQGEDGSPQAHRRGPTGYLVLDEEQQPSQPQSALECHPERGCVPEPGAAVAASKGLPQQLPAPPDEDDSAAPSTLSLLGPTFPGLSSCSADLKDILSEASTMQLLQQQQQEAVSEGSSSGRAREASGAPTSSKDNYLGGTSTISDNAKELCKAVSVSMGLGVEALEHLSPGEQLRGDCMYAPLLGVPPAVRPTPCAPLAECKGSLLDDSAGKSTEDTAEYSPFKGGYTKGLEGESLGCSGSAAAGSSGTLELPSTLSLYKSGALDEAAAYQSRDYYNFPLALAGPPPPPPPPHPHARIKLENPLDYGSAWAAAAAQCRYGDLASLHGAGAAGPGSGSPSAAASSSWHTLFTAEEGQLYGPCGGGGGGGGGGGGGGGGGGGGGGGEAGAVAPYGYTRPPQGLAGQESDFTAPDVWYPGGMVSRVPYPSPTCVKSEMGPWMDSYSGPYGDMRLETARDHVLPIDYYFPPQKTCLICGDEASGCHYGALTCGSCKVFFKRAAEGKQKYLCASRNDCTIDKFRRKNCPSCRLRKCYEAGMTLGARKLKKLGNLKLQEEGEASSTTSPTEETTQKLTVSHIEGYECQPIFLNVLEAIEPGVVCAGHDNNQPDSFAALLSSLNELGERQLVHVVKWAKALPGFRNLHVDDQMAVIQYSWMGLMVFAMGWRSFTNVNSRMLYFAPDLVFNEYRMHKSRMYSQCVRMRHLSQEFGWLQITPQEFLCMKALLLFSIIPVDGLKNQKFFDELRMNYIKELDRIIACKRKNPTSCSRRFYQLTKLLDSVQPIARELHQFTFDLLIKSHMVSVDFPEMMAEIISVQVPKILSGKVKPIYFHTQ
Sequence of Mast/stem cell growth factor receptor Kit (P10721 whole entry, the tested form may be a part): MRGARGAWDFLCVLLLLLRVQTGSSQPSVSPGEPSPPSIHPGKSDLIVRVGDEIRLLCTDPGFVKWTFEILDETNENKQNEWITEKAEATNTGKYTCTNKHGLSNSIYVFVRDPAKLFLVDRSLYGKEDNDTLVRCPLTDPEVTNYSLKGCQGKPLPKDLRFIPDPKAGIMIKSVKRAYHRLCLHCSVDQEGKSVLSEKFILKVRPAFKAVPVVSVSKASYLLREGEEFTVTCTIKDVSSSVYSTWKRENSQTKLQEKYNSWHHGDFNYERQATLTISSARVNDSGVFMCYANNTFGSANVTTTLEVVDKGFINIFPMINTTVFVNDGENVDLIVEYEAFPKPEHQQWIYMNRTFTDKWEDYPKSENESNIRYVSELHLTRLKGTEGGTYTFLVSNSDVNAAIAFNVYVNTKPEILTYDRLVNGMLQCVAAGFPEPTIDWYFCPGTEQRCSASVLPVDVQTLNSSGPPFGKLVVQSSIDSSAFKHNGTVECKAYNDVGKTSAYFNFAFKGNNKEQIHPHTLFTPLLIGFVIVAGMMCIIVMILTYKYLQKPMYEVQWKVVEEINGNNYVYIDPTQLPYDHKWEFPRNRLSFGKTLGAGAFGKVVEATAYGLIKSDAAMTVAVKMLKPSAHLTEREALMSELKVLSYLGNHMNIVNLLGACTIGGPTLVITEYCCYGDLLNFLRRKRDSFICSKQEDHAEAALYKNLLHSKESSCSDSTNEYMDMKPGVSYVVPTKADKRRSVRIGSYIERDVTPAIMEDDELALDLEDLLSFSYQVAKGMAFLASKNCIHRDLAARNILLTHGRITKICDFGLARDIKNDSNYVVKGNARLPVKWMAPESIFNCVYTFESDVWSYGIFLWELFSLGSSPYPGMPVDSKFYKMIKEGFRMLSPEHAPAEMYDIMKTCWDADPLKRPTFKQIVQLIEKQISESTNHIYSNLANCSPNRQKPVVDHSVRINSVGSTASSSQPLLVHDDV
Sequence of Muscle, skeletal receptor tyrosine-protein kinase (O15146 whole entry, the tested form may be a part): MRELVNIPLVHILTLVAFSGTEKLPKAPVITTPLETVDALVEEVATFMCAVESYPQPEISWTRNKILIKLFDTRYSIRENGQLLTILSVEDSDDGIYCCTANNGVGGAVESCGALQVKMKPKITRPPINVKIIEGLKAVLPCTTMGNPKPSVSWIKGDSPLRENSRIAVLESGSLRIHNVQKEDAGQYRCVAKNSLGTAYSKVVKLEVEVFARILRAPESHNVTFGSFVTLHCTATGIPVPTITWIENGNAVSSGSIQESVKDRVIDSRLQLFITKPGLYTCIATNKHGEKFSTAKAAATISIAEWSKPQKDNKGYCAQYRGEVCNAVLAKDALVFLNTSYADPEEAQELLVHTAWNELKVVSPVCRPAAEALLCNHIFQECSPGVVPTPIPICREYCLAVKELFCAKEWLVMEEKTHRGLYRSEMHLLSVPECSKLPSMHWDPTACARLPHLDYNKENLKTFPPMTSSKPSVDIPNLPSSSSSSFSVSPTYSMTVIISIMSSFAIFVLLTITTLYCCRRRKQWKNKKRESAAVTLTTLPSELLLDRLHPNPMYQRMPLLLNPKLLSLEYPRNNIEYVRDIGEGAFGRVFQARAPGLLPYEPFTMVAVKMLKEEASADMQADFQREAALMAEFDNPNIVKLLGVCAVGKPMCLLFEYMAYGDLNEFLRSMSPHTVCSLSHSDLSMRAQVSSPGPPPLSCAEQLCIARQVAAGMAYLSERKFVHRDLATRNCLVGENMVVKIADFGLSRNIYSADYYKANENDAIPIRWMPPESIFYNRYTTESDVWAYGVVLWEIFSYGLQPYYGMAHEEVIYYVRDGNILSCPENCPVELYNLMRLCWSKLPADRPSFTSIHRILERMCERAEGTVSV
Sequence of MAP kinase-activated protein kinase 3 (Q16644 whole entry, the tested form may be a part): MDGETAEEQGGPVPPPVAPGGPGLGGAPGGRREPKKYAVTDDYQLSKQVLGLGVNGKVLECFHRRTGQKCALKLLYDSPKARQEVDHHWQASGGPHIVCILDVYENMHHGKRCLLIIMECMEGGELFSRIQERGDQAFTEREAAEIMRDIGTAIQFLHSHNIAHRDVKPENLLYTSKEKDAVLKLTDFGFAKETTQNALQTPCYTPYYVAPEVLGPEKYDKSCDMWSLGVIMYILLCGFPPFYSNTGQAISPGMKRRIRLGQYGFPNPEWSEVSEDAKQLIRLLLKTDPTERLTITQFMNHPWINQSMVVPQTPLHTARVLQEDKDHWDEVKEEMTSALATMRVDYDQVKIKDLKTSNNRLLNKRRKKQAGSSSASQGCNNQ
Sequence of Cyclin-dependent kinase 5/CDK5 activator 1 (Q00535 whole entry, the tested form may be a part): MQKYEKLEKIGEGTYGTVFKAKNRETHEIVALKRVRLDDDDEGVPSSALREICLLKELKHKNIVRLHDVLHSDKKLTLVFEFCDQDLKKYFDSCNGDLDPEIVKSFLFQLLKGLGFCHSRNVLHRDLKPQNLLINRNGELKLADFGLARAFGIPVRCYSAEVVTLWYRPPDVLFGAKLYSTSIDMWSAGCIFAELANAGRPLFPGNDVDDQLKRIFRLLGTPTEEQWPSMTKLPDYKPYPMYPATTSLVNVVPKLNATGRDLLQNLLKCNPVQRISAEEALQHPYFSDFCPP
Sequence of Cyclin-dependent kinase 5/CDK5 activator 1 (Q15078 whole entry, further chain, the tested form may be a part): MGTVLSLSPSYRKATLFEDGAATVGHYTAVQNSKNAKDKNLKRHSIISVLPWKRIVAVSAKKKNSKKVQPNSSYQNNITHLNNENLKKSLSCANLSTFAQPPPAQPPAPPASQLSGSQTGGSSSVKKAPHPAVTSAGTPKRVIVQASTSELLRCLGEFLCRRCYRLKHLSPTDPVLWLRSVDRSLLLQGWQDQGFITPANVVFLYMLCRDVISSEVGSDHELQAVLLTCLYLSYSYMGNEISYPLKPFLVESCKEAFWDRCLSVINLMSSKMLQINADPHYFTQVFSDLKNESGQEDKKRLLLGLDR

**Q.** With `C[C@@H]1C[C@H]1C(=O)N1CCN(c2cnc(C#N)c(-c3cnn(C)c3)n2)C[C@H]1C` as the molecule, how does the IC50 [1] read?
**A.** > 100 µM

**Q.** And the IC50 [2]?
**A.** > 100 µM

**Q.** And the IC50 [3]?
**A.** > 100 µM

**Q.** And the half-life [4]?
**A.** 36 min

**Q.** And the Ratio IC50 (Homo sapiens [5])?
**A.** 847

**Q.** And the IC50 [6]?
**A.** > 100 µM

**Q.** And the IC50 [7]?
**A.** > 100 µM

**Q.** And the IC50 [8]?
**A.** > 100 µM

**Q.** What about the IC50 [9] of the same molecule?
**A.** > 100 µM

**Q.** And the inhibition [10]?
**A.** 2%

**Q.** And the IC50 [11]?
**A.** > 100 µM

**Q.** And the IC50 [12]?
**A.** 23.5 µM

**Q.** And the IC50 [13]?
**A.** > 100 µM

**Q.** And the IC50 [14]?
**A.** > 100 µM

**Q.** And the inhibition [15]?
**A.** -1%

**Q.** What about the inhibition [16] of the same molecule?
**A.** 17%

**Q.** And the IC50 [17]?
**A.** > 100 µM

**Q.** And the IC50 [18]?
**A.** > 100 µM

**Q.** And the Ratio IC50 (Homo sapiens [19])?
**A.** > 373

**Q.** And the IC50 [20]?
**A.** > 100 µM

**Q.** What about the inhibition [21] of the same molecule?
**A.** -1%

**Q.** And the IC50 [22]?
**A.** > 100 µM

**Q.** What about the IC50 [23] of the same molecule?
**A.** > 100 µM

**Q.** And the IC50 [24]?
**A.** > 100 µM

**Q.** And the inhibition (Rattus norvegicus)?
**A.** -8%
